Measured values published in US20030092757A1, “Favorable modulation of health-related quality of life and health-related quality-adjusted time-to-progression of disease in patients with prostate cancer” (priority 2001, published 2003).

System: patients having hormone refractory prostate cancer (HRPCa)
Assay: Health-related quality-adjusted time-to-progression (QATTP) of disease, Kaplan-Meier product limit analysis, randomized placebo-controlled study
Type: in vivo, human
Procedure: The health-related QATTP of disease model for this invention expresses progression-free time as an equally preferable amount of time spent in full health. This is achieved by using patient-reported health-related QoL, as measured for the duration of observation or progression-free interval, to weight progression-free time. […] Patients received treatment with 10 mg (N=89) or 2.5 mg (N=95) of atrasentan or placebo (N=104) until experiencing a clinical event indicative of disease progression such as palliative opiate treatment of new bone or visceral pain, palliative radiation treatment of new bone pain, or new tumor growth symptoms requiring intervention or treatment with chemotherapy. Patient-reported health-related QoL data were collected with the EORTC QLQ-30 and the FACT-G and FACT-P, both of which were administered at baseline, at six week intervals and at each patient's final visit. The results from the 10 mg and 2.5 mg treatment groups are reported relative to the placebo group. A patient's transformed domain score and total score from both the EORTC QLQ-30 and FACT were used to weight the time-to-progression outcome data. Transformed domain scores ranged between 0 and 1, so the reported health-related QATTP of disease outcome was never larger than the actual time-to-progression. Each patient's health-related QATTP of disease was computed as the sum of the health-related QoL weights multiplied by the duration for which that patient experienced that health-related QoL. If a patient experienced a clinical event between two health-related QoL assessments, the set of health-related QoL domain scores immediately prior to the event were carried forward to the time of the clinical event. The mean and median health-related QATTP of disease outcomes were then estimated using Kaplan-Meier product limit methodology (Journal of the American Statistical Association, vol. 53, 1958, pp 457-481). The area under a Kaplan-Meier survival curve conveys an estimated mean health-related QATTP of disease. This analysis was applied to both intent-to-treat and per protocol population data. All health-related QATTP of disease comparisons between atrasentan and placebo treatment groups were based on a log-rank test with statistical significance at an α of 0.05. Results of the Kaplan-Meier product limit survival method analysis are reported in TABLE 2 (Intent to Treat) and TABLE 3 (Per Protocol Population). Mean and median health-related QATTP of disease are shown by treatment group. Log-rank tests comparing the differences between treatment groups are also reported.

[1] = EORTC Appetite Loss, 2.5 mg, intent to treat
[2] = EORTC Appetite Loss, 2.5 mg, per protocol
[3] = EORTC Appetite Loss, 10 mg, intent to treat
[4] = EORTC Appetite Loss, 10 mg, per protocol
[5] = EORTC Cognitive Functioning, 2.5 mg, intent to treat
[6] = EORTC Cognitive Functioning, 2.5 mg, per protocol
[7] = EORTC Cognitive Functioning, 10 mg, intent to treat
[8] = EORTC Cognitive Functioning, 10 mg, per protocol
[9] = EORTC Constipation, 2.5 mg, intent to treat
[10] = EORTC Constipation, 2.5 mg, per protocol
[11] = EORTC Constipation, 10 mg, intent to treat
[12] = EORTC Constipation, 10 mg, per protocol
[13] = EORTC Diarrhea, 2.5 mg, intent to treat
[14] = EORTC Diarrhea, 2.5 mg, per protocol
[15] = EORTC Diarrhea, 10 mg, intent to treat
[16] = EORTC Diarrhea, 10 mg, per protocol
[17] = EORTC Dyspnea, 2.5 mg, intent to treat
[18] = EORTC Dyspnea, 2.5 mg, per protocol
[19] = EORTC Dyspnea, 10 mg, intent to treat
[20] = EORTC Dyspnea, 10 mg, per protocol
[21] = EORTC Emotional Functioning, 2.5 mg, intent to treat
[22] = EORTC Emotional Functioning, 2.5 mg, per protocol
[23] = EORTC Emotional Functioning, 10 mg, intent to treat
[24] = EORTC Emotional Functioning, 10 mg, per protocol
[25] = EORTC Fatigue, 2.5 mg, intent to treat
[26] = EORTC Fatigue, 2.5 mg, per protocol
[27] = EORTC Fatigue, 10 mg, intent to treat
[28] = EORTC Fatigue, 10 mg, per protocol
[29] = EORTC Global Score, 2.5 mg, intent to treat
[30] = EORTC Global Score, 2.5 mg, per protocol
[31] = EORTC Global Score, 10 mg, intent to treat
[32] = EORTC Global Score, 10 mg, per protocol
[33] = EORTC Nausea & Vomiting, 2.5 mg, intent to treat
[34] = EORTC Nausea & Vomiting, 2.5 mg, per protocol
[35] = EORTC Nausea & Vomiting, 10 mg, intent to treat
[36] = EORTC Nausea & Vomiting, 10 mg, per protocol
[37] = EORTC Pain, 2.5 mg, intent to treat
[38] = EORTC Pain, 2.5 mg, per protocol
[39] = EORTC Pain, 10 mg, intent to treat
[40] = EORTC Pain, 10 mg, per protocol
[41] = EORTC Physical Functioning, 2.5 mg, intent to treat

CCCCN(CCCC)C(=O)CN1C[C@H](c2ccc3c(c2)OCO3)[C@@H](C(=O)O)[C@@H]1c1ccc(OC)cc1 [atrasentan, (2R,3R,4S)-2-(4-methoxyphenyl)-4-(1,3-benzodioxol-5-yl)-1-(((N,N-dibutylamino)carbonyl)methyl)pyrrolidine-3-carboxylic acid]
log rank tests of mean health-related QATTP of disease (2.5 mg, all health-related QoL domains except dyspnea and functional well-being): statistically significant
mean health-related QATTP of disease (2.5 mg, data in TABLE 2 (so in the source)): longer
difference in health-related QATTP between the atrasentan treatment groups (10 mg vs 2.5 mg, any health-related QoL domain): no statistical differences
mean health-related QATTP's of disease (10 mg, data in TABLE 2 (so in the source), all health-related QoL domains except dyspnea, global score, emotional well-being, social well-being, p<0.05): significantly longer
mean health-related QATTP of disease, trend (10 mg, dyspnea, global score, emotional well-being, social well-being domains, p<0.10): trend favored
QATTP of Disease Mean [1]: 186 days
QATTP of Disease Median [1]: 151 days
QATTP of Disease Mean [2]: 196 days
QATTP of Disease Median [2]: 162 days
QATTP of Disease Mean [3]: 175 days
QATTP of Disease Median [3]: 146 days
QATTP of Disease Mean [4]: 179 days
QATTP of Disease Median [4]: 146 days
QATTP of Disease Mean [5]: 180 days
QATTP of Disease Median [5]: 151 days
QATTP of Disease Mean [6]: 190 days
QATTP of Disease Median [6]: 156 days
QATTP of Disease Mean [7]: 163 days
QATTP of Disease Median [7]: 138 days
QATTP of Disease Mean [8]: 159 days
QATTP of Disease Median [8]: 144 days
QATTP of Disease Mean [9]: 180 days
QATTP of Disease Median [9]: 142 days
QATTP of Disease Mean [10]: 190 days
QATTP of Disease Median [10]: 151 days
QATTP of Disease Mean [11]: 189 days
QATTP of Disease Median [11]: 132 days
QATTP of Disease Mean [12]: 198 days
QATTP of Disease Median [12]: 141 days
QATTP of Disease Mean [13]: 198 days
QATTP of Disease Median [13]: 178 days
QATTP of Disease Mean [14]: 209 days
QATTP of Disease Median [14]: 184 days
QATTP of Disease Mean [15]: 185 days
QATTP of Disease Median [15]: 176 days
QATTP of Disease Mean [16]: 188 days
QATTP of Disease Median [16]: 184 days
QATTP of Disease Mean [17]: 173 days
QATTP of Disease Median [17]: 141 days
QATTP of Disease Mean [18]: 180 days
QATTP of Disease Median [18]: 142 days
QATTP of Disease Mean [19]: 177 days
QATTP of Disease Median [19]: 123 days
QATTP of Disease Mean [20]: 182 days
QATTP of Disease Median [20]: 132 days
QATTP of Disease Mean [21]: 177 days
QATTP of Disease Median [21]: 133 days
QATTP of Disease Mean [22]: 186 days
QATTP of Disease Median [22]: 143 days
QATTP of Disease Mean [23]: 167 days
QATTP of Disease Median [23]: 125 days
QATTP of Disease Mean [24]: 169 days
QATTP of Disease Median [24]: 134 days
QATTP of Disease Mean [25]: 165 days
QATTP of Disease Median [25]: 109 days
QATTP of Disease Mean [26]: 174 days
QATTP of Disease Median [26]: 127 days
QATTP of Disease Mean [27]: 153 days
QATTP of Disease Median [27]: 104 days
QATTP of Disease Mean [28]: 158 days
QATTP of Disease Median [28]: 111 days
QATTP of Disease Mean [29]: 159 days
QATTP of Disease Median [29]: 104 days
QATTP of Disease Mean [30]: 167 days
QATTP of Disease Median [30]: 124 days
QATTP of Disease Mean [31]: 141 days
QATTP of Disease Median [31]: 103 days
QATTP of Disease Mean [32]: 145 days
QATTP of Disease Median [32]: 106 days
QATTP of Disease Mean [33]: 195 days
QATTP of Disease Median [33]: 162 days
QATTP of Disease Mean [34]: 206 days
QATTP of Disease Median [34]: 178 days
QATTP of Disease Mean [35]: 201 days
QATTP of Disease Median [35]: 156 days
QATTP of Disease Mean [36]: 207 days
QATTP of Disease Median [36]: 168 days
QATTP of Disease Mean [37]: 179 days
QATTP of Disease Median [37]: 133 days
QATTP of Disease Mean [38]: 188 days
QATTP of Disease Median [38]: 142 days
QATTP of Disease Mean [39]: 172 days
QATTP of Disease Median [39]: 127 days
QATTP of Disease Mean [40]: 178 days
QATTP of Disease Median [40]: 137 days
QATTP of Disease Mean [41]: 172 days
QATTP of Disease Median [41]: 118 days
QATTP of Disease Mean (EORTC Physical Functioning, 2.5 mg, per protocol): 181 days
